# Patent US11014876B2, “Polyamine sulfonamides and uses thereof” (University of Florida Research Foundation, Inc., priority 2015, dated 2021)
# Columns and labels:
# [1] = system: KG-1 cell lines (human acute myeloid leukemia cells); assay: AML cell (KG1) toxicity in AML-BMEC co-culture high-throughput screening assay; assay type: cell-based; conditions: percent toxicity to KG-1 cells normalized to DMF
# Description: FIG. 4. Schematic of high throughput screening assay. AML cells are cultured on bone marrow derived endothelial cells. After 24 hours of exposure to compound treatment, the AML cells and endothelial cells are analyzed for viability using flow cytometry for 7-AAD and annexin. The phase contrast micrographs in the bottom portion of this figure are representative of untreated control and drug treated conditions. In the control situation, spindle shaped endothelial cells appear under the round shaped AML cells. In the drug treated conditions, some compounds disrupt the spindle shaped endothelial cells and lead to their detachment and death. […] This is optimal because of the high toxicity to the malignant cells and low toxicity to stromal cells. Stromal cell viability represents safety.
# (§1) The values given for percent toxicity to KG-1 cells is normalized to DMF. To compare the average AML-LSC toxicity vs. AML total toxicity, fresh human primary leukemia bone marrow mononuclear cells were treated with single doses of compounds, 2470-23 and 2470-51, at a single time point, and the killing of the AML leukemia stem cell (LSC) population versus the total AML cell population was quantified (FIG. 1). […] Next, AML-LSC toxicity versus T lymphocyte (Jurkat) toxicity was investigated. […] The single-dose treatments of 2470-23 and 2470-51 on normal healthy blood stem cells (sourced from fresh umbilical cord blood) versus AML LSC were also compared.
# [2] = system: AML leukemia stem cell (LSC) population (CD34+CD38-CD123+); assay: AML-LSC toxicity vs. AML total toxicity in fresh primary leukemia bone marrow mononuclear cells; assay type: cell-based, human; conditions: for killing of AML LSC population versus total AML cell population: single dose, single time point, FIG. 1; for depletion of leukemia stem cells: single-dose treatment, FIG. 3
# Description: FIG. 1. Comparing average AML-LSC toxicity vs. AML total toxicity. Fresh human primary leukemia bone marrow mononuclear cells were treated with single doses of compounds 2470-23 and 2470-51 at a single time point and the killing of the leukemia stem cell (LSC) population (defined as CD34+CD38-CD123+) was quantified versus the total AML cell population.
# as §1
# [3] = system: lymphoid (CD4+ Jurkat) versus myeloid (AML LSC) leukemia cells; assay: AML-LSC toxicity vs. Jurkat toxicity; assay type: cell-based, human; conditions: single-dose treatment; FIG. 2
# Description: FIG. 2. Comparison of average AML-LSC toxicity vs. Jurkat toxicity.
# as §1
# [4] = system: normal healthy blood stem cells (fresh umbilical cord blood); assay: Cord blood stem cell toxicity; assay type: cell-based, human; conditions: single-dose treatment; FIG. 3
# Description: FIG. 3. Comparison of average AML-LSC toxicity vs. cord blood stem cell toxicity. The single-dose treatments of 2470-23 and 2470-51 on normal healthy blood stem cells (sourced from fresh umbilical cord blood) and AML LSC were compared.
# as §1
# [5] = system: primary human AML cells; assay: AML engraftment in NRGS mice injected with primary human AML cells; assay type: in vivo; conditions: 20 mg/kg IP TIW, two-week treatment, FIG. 9
# Description: FIG. 9. […] Immunocompromised NRGS (NOD.CG-Rag1^tm1MomIl2rg^tm1Wjl (CMV-IL3, CSF2, KITLG) 1Eav/J) mice were given sub-lethal irradiation (200 cGy), followed by tail vein injection of primary human AML cells. At the end of four week, the animals were randomized into two-week treatment groups: vehicle-treated (PBS treatment control), cytarabine-treated 100 mg/kg IP TIW (positive treatment control), and 2470-51 20 mg/kg IP TIW. Bone marrows were examined for the presence of human CD45+ (green) and DAPI).
# [6] = system: bone marrow cells from healthy adults; assay: Viability of bone marrow cells from healthy adults; assay type: cell-based, human; conditions: FIG. 5B
# [7] = PAMPA; assay type: in vitro ADME
# [8] = molecular target: T1, alpha-enolase (Homo sapiens, UniProt P06733); assay: Proteomic target identification (pronase protection, MS/MS); assay type: binding; conditions: FIG. 7A
# T1 construct: endogenous in cells; host or cells: KG-1, primary AML cells (816, LPP4), CD34+ cells; lysates
# Description: FIG. 6. This schematic illustrates the proteomics work flow in identifying protein targets for the compounds. AML cells (KG-1, AML 1:816, AML 2:LPP4) and health hematopoietic stem/progenitor cells (CD34+) were lysed and then mixed with either vehicle or a compound (e.g., 2470-51). Following compound-protein binding, pronase was used to cleave the proteins. Where the compound bound to proteins, this site was protected from pronase digestion. The peptides were then analyzed via gel-based target identification and label-free mass spectrometry.
# [9] = molecular target: CYP450 2C9 (Homo sapiens, UniProt P11712); assay: CYP450 inhibition 2C9; assay type: in vitro ADME
# [10] = system: enolase; assay: Enolase protein expression in AML cells; assay type: cell-based, human; conditions: FIG. 8A
# Excerpt: (§2) FIG. 8A. Enolase protein expression. […] Thus, enolase correlates with malignant transformation, but is not changed by applying compounds of the present invention. FIG. 8B. Effect of compounds on enolase enzyme activity.
# [11] = molecular target: CYP450 3A4 (Homo sapiens, UniProt P08684); assay: CYP450 inhibition 3A4; assay type: in vitro ADME
# [12] = Microsomal stability, human; assay type: in vitro ADME; conditions: microsomes, read-out: Microsomal Stability, t1/2
# [13] = Human plasma half-life; assay type: in vitro ADME
# [14] = Aqueous solubility; assay type: physicochemical; conditions: aqueous medium
# [15] = Microsomal stability, mouse; assay type: in vitro ADME; conditions: microsomes, read-out: Microsomal Stability, t1/2
# [16] = molecular target: enolase (Homo sapiens, UniProt P06733); assay: Enolase enzyme activity; assay type: biochemical; conditions: FIG. 8B
# Excerpt: as §2
# [17] = Microsomal stability, rat; assay type: in vitro ADME; conditions: microsomes, read-out: Microsomal Stability, t1/2
# [18] = system: Primary human AML specimens (824, 872, 874); assay: Viability of primary human AML specimens; assay type: cell-based; conditions: 24 hours at 50 ng/mL; P<0.05; FIG. 5A
# [19] = molecular target: CYP450 2D6 (Homo sapiens, UniProt P10635); assay: CYP450 inhibition 2D6; assay type: in vitro ADME
# [20] = Plasma protein binding; assay type: in vitro ADME
# CYP450 3A4, sequence (P08684 whole entry): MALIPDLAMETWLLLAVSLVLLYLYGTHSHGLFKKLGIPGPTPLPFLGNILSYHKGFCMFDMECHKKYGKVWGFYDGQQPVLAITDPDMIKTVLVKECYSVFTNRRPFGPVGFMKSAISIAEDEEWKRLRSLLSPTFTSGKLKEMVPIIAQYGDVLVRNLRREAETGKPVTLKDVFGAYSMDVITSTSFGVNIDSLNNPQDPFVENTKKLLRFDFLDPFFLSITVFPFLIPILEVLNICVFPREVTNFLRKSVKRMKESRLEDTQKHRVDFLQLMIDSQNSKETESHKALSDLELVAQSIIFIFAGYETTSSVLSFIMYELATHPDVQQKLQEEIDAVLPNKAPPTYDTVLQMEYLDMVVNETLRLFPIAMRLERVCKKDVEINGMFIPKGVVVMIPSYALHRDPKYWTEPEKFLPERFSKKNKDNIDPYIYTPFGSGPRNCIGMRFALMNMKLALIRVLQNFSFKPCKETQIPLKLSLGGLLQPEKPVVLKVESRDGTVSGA
# CYP450 2C9, sequence (P11712 whole entry): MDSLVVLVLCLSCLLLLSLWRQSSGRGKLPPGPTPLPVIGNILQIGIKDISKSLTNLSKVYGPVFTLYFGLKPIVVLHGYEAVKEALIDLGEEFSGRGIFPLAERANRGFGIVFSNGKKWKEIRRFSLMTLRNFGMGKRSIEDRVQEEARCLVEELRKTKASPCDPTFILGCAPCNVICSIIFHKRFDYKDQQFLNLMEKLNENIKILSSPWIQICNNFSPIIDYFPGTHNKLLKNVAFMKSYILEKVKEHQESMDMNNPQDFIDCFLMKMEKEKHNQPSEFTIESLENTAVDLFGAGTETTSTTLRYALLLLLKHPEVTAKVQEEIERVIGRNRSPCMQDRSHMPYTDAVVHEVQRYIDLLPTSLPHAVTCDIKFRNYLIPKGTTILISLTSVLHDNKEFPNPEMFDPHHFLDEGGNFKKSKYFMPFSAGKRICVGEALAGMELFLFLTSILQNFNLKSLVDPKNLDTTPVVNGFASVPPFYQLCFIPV
# CYP450 2D6, sequence (P10635 whole entry): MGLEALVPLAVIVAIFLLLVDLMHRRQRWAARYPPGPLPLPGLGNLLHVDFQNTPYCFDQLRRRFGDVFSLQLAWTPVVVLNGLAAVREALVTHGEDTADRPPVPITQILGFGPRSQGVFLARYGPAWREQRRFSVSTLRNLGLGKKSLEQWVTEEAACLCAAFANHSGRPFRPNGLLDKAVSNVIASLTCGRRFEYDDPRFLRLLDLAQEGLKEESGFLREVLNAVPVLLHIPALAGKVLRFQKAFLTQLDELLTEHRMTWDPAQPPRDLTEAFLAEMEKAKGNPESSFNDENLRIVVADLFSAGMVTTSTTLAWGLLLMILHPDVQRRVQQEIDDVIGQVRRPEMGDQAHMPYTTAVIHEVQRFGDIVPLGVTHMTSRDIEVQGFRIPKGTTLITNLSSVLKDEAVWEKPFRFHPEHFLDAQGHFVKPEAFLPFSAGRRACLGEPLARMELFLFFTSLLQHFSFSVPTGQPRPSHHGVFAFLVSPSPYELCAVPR
# T1 sequence (P06733 whole entry): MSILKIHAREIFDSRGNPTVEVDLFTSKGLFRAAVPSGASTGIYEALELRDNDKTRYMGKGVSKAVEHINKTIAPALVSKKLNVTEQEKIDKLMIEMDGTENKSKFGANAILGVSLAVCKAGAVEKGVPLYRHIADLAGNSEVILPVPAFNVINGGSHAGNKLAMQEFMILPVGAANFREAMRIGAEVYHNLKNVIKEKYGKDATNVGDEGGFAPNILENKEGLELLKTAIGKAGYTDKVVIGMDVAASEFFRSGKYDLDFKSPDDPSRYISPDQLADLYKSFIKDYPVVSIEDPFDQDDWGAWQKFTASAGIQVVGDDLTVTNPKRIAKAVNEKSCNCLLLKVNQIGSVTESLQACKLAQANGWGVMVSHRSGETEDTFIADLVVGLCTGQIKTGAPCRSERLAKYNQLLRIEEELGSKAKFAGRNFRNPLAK
# enolase (Homo sapiens, UniProt P06733), sequence (P06733 whole entry): as above
smiles,measurement,setting,value
CC(C)[C@H](CN)NC[C@H](C)NS(=O)(=O)c1ccc2ccccc2c1 [Compound 2470-49],KG1 toxicity (50 μg/mL),[1],46.7%
CC(C)[C@@H](CN)NC[C@@H](NS(=O)(=O)c1ccc(I)cc1)C(C)C [Compound 2470-23],killing of AML LSC population versus total AML cell population,[2],selectively kills the AML LSC fraction
same,depletion of leukemia stem cells,[2],do deplete the leukemia stem cells
same,KG1 toxicity (50 μg/mL),[1],45.9%
same,AML-LSC toxicity vs. Jurkat toxicity,[3],specificity of these compounds for AML
same,depletion of healthy cord blood stem cells,[4],do not deplete healthy stem cells
CC(C)[C@H](CN)NC[C@H](C)NS(=O)(=O)c1ccc(C(C)(C)C)cc1 [Compound 2470-51],AML engraftment (human CD45+ in bone marrow),[5],significantly reduced AML engraftment
same,cell viability of healthy adult bone marrow cells compared to vehicle control,[6],did not reduce cell viability
same,PAMPA,[7],1 ×10⁻⁶ cm/s
same,PAMPA (grade in words),[7],(moderate)
same,killing of AML LSC population versus total AML cell population,[2],selectively kills the AML LSC fraction
same,depletion of leukemia stem cells,[2],do deplete the leukemia stem cells
same,binding to alpha-enolase peptide (MS/MS),[8],covalently bound
same,IC50,[9],> 20 µM
same,enolase protein expression relative to vehicle,[10],did not change protein expression
same,IC50,[11],> 20 µM
same,half-life,[12],33 min
same,KG1 toxicity (50 μg/mL),[1],93.2%
same,half-life,[13],> 200 min
same,solubility,[14],> 100 µM
same,half-life,[15],8 min
same,AML-LSC toxicity vs. Jurkat toxicity,[3],specificity of these compounds for AML
same,enolase enzymatic activity,[16],reduced in a dose-dependent fashion
same,depletion of healthy cord blood stem cells,[4],do not deplete healthy stem cells
same,half-life,[17],9 min
same,AML cell viability compared to vehicle-treated controls,[18],significantly reduced AML cell viability
same,IC50,[19],10.8 µM
same,fraction unbound,[20],0.195
CC(C)[C@@H](CN)NC[C@H](C)NS(=O)(=O)c1ccc(C(C)(C)C)cc1 [Compound 2470-15],KG1 toxicity (50 μg/mL),[1],38.4%
CC(C)C[C@H](CN)NC[C@H](CCO)NS(=O)(=O)c1ccc2ccccc2c1 [Compound 2470-40],KG1 toxicity (50 μg/mL),[1],37.4%
